# Results published in patent publication US20060115571A1, “Functional foods/drinks containing antiallergic component” (priority 2002, published 2006).
# Experiment: stability during the process of preparing the hard candy
# Conditions: powder of an extract of "Benifuki" made into hard candy
# Description: Using a powder of an extract of “Benifuki”, a hard candy was prepared. Methylcatechin was contained at 2.7% in the powder of the extract, so one hard candy was designed to contain 3 mg of methylcatechin.
compound,measurement,value
"O=C1C[C@@H]2OCC=C3CN4CC[C@]56c7ccccc7N1[C@H]5[C@H]2[C@H]3C[C@H]46 [Strychnine, strychnine]",stability during the process of preparing the hard candy,stable
